# Paper PMC4257560, “Synthesis and Functional Characterization of Substituted Isoquinolinones as MT2-Selective Melatoninergic Ligands” (PLoS ONE, 2014)
# “And” between values parts separate entries of the source, which are not always exact repeats. Equal entries are not always repeated. “Also recorded” adds a separate entry of the source. Where two headings read alike, the source gives them in different places.
# How the values were obtained:
# MT2 [1] = target: T1, MT2 (Homo sapiens, UniProt P49286); assay: Inhibition of forskolin-stimulated cAMP accumulation in MT2-CHO cells; assay type: cell-based; design: expressed in transfected cells; details: for IC50: MT2-CHO cells, 50 µM forskolin, calculated from mean pIC50, read-out: MT2 IC50, inhibition of cAMP production; for MT2 %Inhmax ±SEM: maximal percentage inhibition of the forskolin-elevated cAMP level, MT2-CHO
# T1 sequence (P49286 1-362): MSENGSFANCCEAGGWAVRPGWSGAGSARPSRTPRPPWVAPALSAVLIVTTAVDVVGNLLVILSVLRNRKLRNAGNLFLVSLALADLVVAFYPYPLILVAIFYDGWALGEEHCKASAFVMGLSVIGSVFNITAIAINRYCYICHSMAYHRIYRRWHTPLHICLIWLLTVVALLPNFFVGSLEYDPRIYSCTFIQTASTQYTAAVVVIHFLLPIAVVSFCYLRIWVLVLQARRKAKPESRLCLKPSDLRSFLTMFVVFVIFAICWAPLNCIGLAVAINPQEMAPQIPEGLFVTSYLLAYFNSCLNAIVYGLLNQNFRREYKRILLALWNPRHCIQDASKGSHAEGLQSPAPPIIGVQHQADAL
# Experimental: (§1) Both MT1 and MT2 are classified as Gi-coupled receptors with their activation leading to inhibition of intracellular cAMP production. The ability of the tested compounds to activate the endogenously expressed Gi-mediated inhibition of cAMP production was therefore examined.
# (§2) All the responses were expressed as the percentage of that induced by forskolin alone (as 100%).
# (§3) 2×10^5 cells were seeded in each well of 12-well plates and grown for overnight. Each well was labeled with 1 ml of [^3H]adenine (1 µCi/ml) in F-12K medium containing 1% FBS (vol/vol) for overnight. The labeling media were then replaced by 1 ml of 20 mM HEPES-buffered F-12K containing 1 mM isobutylmethylxanthine (IBMX) and the tested compounds at desired concentrations, and incubated at 37°C for 30 min. The reaction was stopped by aspiration and adding 1 ml prechilled 5% trichloroacetic acid (w/v) with 1 mM ATP, and stored at 4°C for 30 min. [^3H]cAMP was extracted from the pool of labeled adenosine nucleotides by sequential ion-exchange chromatography as previously described. The radioactivity of labeled cAMP and total labeled nucleotide fractions separated by chromatography were estimated by scintillation counting. Inhibition curves were constructed by non-linear regression using GraphPad Prism 3.
# MT1 [2] = target: T2, MT1 (Homo sapiens, UniProt P48039); details: for MT1 pIC50±SEM: 4°C 60 min, mean ± SEM of 3–5 trials, NSB = no specific binding for up to 30 µM
# T2 sequence (P48039 whole entry): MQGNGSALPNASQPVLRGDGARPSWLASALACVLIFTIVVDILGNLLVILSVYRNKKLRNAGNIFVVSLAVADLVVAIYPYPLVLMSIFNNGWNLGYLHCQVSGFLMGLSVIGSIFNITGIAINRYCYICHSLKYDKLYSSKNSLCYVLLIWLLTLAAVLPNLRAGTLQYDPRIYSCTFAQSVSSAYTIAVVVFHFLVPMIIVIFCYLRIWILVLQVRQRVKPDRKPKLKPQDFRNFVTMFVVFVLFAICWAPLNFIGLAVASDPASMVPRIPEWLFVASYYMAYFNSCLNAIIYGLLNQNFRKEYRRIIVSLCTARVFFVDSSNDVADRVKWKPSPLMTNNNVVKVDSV
# Experimental: (§5) Competitive receptor binding characteristics of melatonin and the 15 tested compounds towards human MT1 and MT2 stably expressed in Chinese hamster ovary (CHO) cells were determined using intact cell preparation pre-incubated with 1 nM [^3H]melatonin.
# (§6) Individual melatonin receptor subtype (either MT1 or MT2) was stably co-expressed with a G protein chimera 16z25 in Chinese hamster ovary (CHO) cells, hereafter denoted as CHO-hMT1 and CHO-hMT2, respectively. […] Single cell-derived colonies of the stable lines with sufficiently high receptor density and robust responses in the fluorometric assay (as described below) were isolated from the pool of transfected cell. Usage of these clonal lines was limited to 15 passages to prevent degradation of signal detection.
# (§7) Competitive binding assays were performed as described [26]. Cells were suspended in binding buffer (50 mM Tris, 2 mM MgCl2, 1 mM EGTA, pH 7.4) in the density of 1.5×10^5 cell/ml. 1 nM [^3H]melatonin and increasing concentrations of a tested compound was included. Cells were incubated at 4°C for 60 min with intermittent agitation and the reaction was stopped by rapid filtration through GF/C filters pre-soaked in 10 mM Tris, pH 7.4 and washed with 1 ml of prechilled binding buffer. Retained radioactivity was measured with Wallac 1450 Microbeta Jet scintillation counter. Competition curves were drawn as one-site competition nonlinear regression model using GraphPad Prism 3.03 to the data which were means ± SEM of 3–4 independent experiments performed in duplicates. In every assay, melatonin was included as standard reference with highly reproducible Ki values, which were calculated using the Cheng-Prusoff equation.
# MT2 [3] = target: T1, MT2; assay: biochemical; details: for Ki: MT2 Ki, calculated from mean pIC50 (Cheng-Prusoff), 1 nM [3H]melatonin, intact CHO cells; for Emax: read-out: MT2 %Resp±SEM (percentage of melatonin-mediated displacement of radioligand binding)
# Experimental: as §5, §6, §7
# MT1 [4] = target: T2, MT1; assay: Inhibition of forskolin-stimulated cAMP accumulation in MT1-CHO cells; assay type: cell-based; design: expressed in transfected cells; details: for MT1 IC50, inhibition of cAMP production: MT1-CHO cells, 50 µM forskolin, calculated from mean pIC50, NSR = no significant response for up to 10 µM; for inhibition of cAMP levels in MT1-CHO cells (in words): forskolin-stimulated; for MT1 %Inhmax ±SEM: maximal percentage inhibition of the forskolin-elevated cAMP level, MT1-CHO
# Experimental: as §1, §2, §3
# MT2 [5] = target: T1, MT2; details: for displacement of pre-incubated [3H]melatonin at MT2 (in words): competitive binding, intact CHO cells
# Experimental: as §5, §6, §7
# MT1 [6] = target: T2, MT1; assay: biochemical; details: for Emax: read-out: MT1 %Resp±SEM (percentage of melatonin-mediated displacement of radioligand binding)
# Experimental: as §5, §6, §7
# MT2 [7] = target: T1, MT2; assay: Intracellular Ca2+ mobilization (FLIPR) in MT2-CHO cells co-expressing 16z25; assay type: cell-based; design: expressed in transfected cells; details: for Emax: percentage of melatonin (MT)-mediated stimulation of Ca2+ signal, read-out: MT2 %Resp ±SEM, Ca2+ signal
# Experimental: (§4) Tested compounds in different concentrations were diluted in assay buffer in 5× of the final desired concentrations in a V-bottomed microplate, and both the cell and compound plates were put into the fluorometric imaging plate reader FLIPR^TETRA (Molecular Devices, Sunnyvale, CA). […] The peak of the time course of fluorescence changes was expressed in relative fluorescence units (RFU). Dose response curves were constructed by non-linear regression using GraphPad Prism 3.
# MT1 [8] = target: T2, MT1; assay: Intracellular Ca2+ mobilization (FLIPR) in MT1-CHO cells co-expressing 16z25; assay type: cell-based; design: expressed in transfected cells; details: for Ca2+ mobilization activity at MT1 (in words): MT1-CHO cells, maximal concentration tested 10 µM
# Experimental: as §4
# [9] = 1 nM [3H]melatonin, intact CHO cells
# [10] = MT2-CHO cells, FLIPR, calculated from mean pEC50, NSR = no significant response for up to 30 µM, read-out: MT2 EC50, Ca2+ mobilization
# 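Wherever MT1 %Resp±SEM (percentage of melatonin-mediated displacement of radioligand binding) is given: competitive radioligand displacement on intact CHO cells stably co-expressing human MT1 together with the G protein chimera 16z25, using rising concentrations of each compound.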
# 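Wherever MT1 pIC50±SEM is given: competitive radioligand displacement on intact CHO cells stably co-expressing human MT1 together with the G protein chimera 16z25, using rising concentrations of each compound.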
# 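Wherever Selectivity, ratio Ki(MT1)/Ki(MT2) is given: competition binding on intact CHO cells stably co-expressing human MT2 with G protein chimera 16z25, displacing [3H]melatonin at 4°C over 60 min, melatonin run as reference.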
# 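Wherever displacement of pre-incubated [3H]melatonin at MT2 (in words) is given: competition binding on intact CHO cells stably co-expressing human MT2 with G protein chimera 16z25, displacing [3H]melatonin at 4°C over 60 min, melatonin run as reference.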
# 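Wherever selectivity toward MT2 over MT1 is given: competition binding on intact CHO cells stably co-expressing human MT2 with G protein chimera 16z25, displacing [3H]melatonin at 4°C over 60 min, melatonin run as reference.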
smiles,measurement,setting,value
"COc1cccc(COc2c(OC)ccc3c(=O)n(C)ccc23)c1 [15b, 6-Methoxy-5-(3-methoxy-benzyloxy)-2-methyl-2H-isoquinolin-1-one]",IC50,MT2 [1],0.81 nM
same,MT2 %Inhmax ±SEM,MT2 [1],61±4%
same,Ki,"MT1 [2]; read-out: MT1 Ki, calculated from mean pIC50 (Cheng-Prusoff), 1 nM [3H]melatonin, intact CHO cells",2980 nM
same,IC50,MT2 [3],5.5 nM
same,Ki,MT2 [3],1.7 nM and 1.66 nM
same,Emax,MT2 [3],85 ± 8%
same,"MT1 IC50, inhibition of cAMP production",MT1 [4],NSR
same,inhibition of cAMP levels in MT1-CHO cells (in words),MT1 [4],completely inactive
same,"Selectivity, ratio Ki(MT1)/Ki(MT2)",MT2 [5],1800
same,IC50,MT1 [6],13200 nM
same,Emax,MT1 [6],71 ± 13%
same,EC50,"MT2 [7]; MT2-CHO cells, FLIPR, mean ± SEM of 3–5 trials, read-out: MT2 pEC50 ±SEM, Ca2+ mobilization (converted)",0.145 nM
same,Emax,MT2 [7]; MT2,89 ± 20%
same,Ca2+ mobilization activity at MT1 (in words),MT1 [8],could not produce any activity; also recorded: totally inactive
"COc1cc2c(=O)n(C)ccc2cc1OCc1cc(C)cc(C)c1 [7g, 6-(3,5-Dimethyl-benzyloxy)-7-methoxy-2-methylisoquinolin-1(2H)-one]",MT1 pIC50±SEM,MT1 [2]; [9],NSB
same,IC50,MT2 [3],3470 nM
same,Ki,MT2 [3],1050 nM
same,Emax,MT2 [3],86 ± 2%
same,EC50,MT2 [7]; [10],110 nM
same,Emax,MT2 [7]; MT2,83 ± 6%
"COc1ccc2[nH]cc(CCNC(C)=O)c2c1 [MT, N-acetyl-5-methoxytryptamine, reference compound]",MT1 %Resp±SEM (percentage of melatonin-mediated displacement of radioligand binding),MT1 [2]; relative to melatonin (MT)-mediated displacement,95±2%
same,MT1 %Inhmax ±SEM,MT1 [4],59±2%
same,MT1 %Inhmax ±SEM,MT1 [4]; listed as Melatonin,60–70%
same,"MT1 %Resp ±SEM, Ca2+ signal",MT1 [8],100±26%
"COc1cc2c(=O)n(C)ccc2cc1OCc1ccccc1 [7a, 6-Benzyloxy-7-methoxy-2-methylisoquinolin-1(2H)-one]",MT1 pIC50±SEM,MT1 [2]; [9],NSB ^c
same,IC50,MT2 [3],2820 nM
same,Ki,MT2 [3],852 nM
same,Emax,MT2 [3],78 ± 7%
same,melting point,,102 to 104 °C
same,EC50,MT2 [7]; [10],163 nM
same,Emax,MT2 [7]; MT2,84 ± 20%
same,concentration triggering Ca2+ signals exclusively in MT2-CHO cells,"MT2 [7]; from concentration response curves, Figure 4",around 1 µM
"COc1cc(COc2c(OC)ccc3c(=O)n(C)ccc23)cc(OC)c1 [15c, 5-(3,5-Dimethoxy-benzyloxy)-6-methoxy-2-methylisoquinolin-1(2H)-one]",IC50,MT2 [1],40.6 nM
same,MT2 %Inhmax ±SEM,MT2 [1],64±3%
same,IC50,MT2 [3],141 nM
same,Ki,MT2 [3],42 nM
same,Emax,MT2 [3],94 ± 13%
same,"MT1 IC50, inhibition of cAMP production",MT1 [4],NSR
same,melting point,,85 to 86 °C
same,"Selectivity, ratio Ki(MT1)/Ki(MT2)",MT2 [5],50.7
same,selectivity toward MT2 over MT1,"MT2 [5]; binding, Ki ratio",51 fold
same,displacement of pre-incubated [3H]melatonin at MT2 (in words),MT2 [5],almost complete displacement
same,IC50,MT1 [6],9330 nM
same,Ki,MT1 [6],2130 nM
same,Emax,MT1 [6],63 ± 4%
same,EC50,MT2 [7]; [10],4.08 nM
same,Emax,MT2 [7]; MT2,85 ± 19%
same,"fold more potent than 7c (Ca2+ signal, MT2)","MT2 [7]; relative to 7c, MT2-CHO",5 fold
same,Ca2+ mobilization activity at MT1 (in words),MT1 [8],could not produce any activity
"COc1cc2ccn(C)c(=O)c2cc1O [compound 12, 7-Hydroxy-6-methoxy-2-methylisoquinolin-1(2H)-one]",Emax at 10 µM,"MT2 [7]; MT2, at 10 µM, partial activation, data not shown, read-out: maximal response, Ca2+ mobilization, MT2",53%
same,Emax at 10 µM,"MT1 [8]; at 10 µM, partial activation, data not shown, read-out: maximal response, Ca2+ mobilization, MT1",36%
"COc1cccc(COc2cc3c(=O)n(C)ccc3cc2OC)c1 [14b, 6-Methoxy-7-(3-methoxy-benzyloxy)-2-methylisoquinolin-1(2H)-one]",IC50,MT2 [1],69.4 nM
same,MT2 %Inhmax ±SEM,MT2 [1],71±6%
same,MT1 pIC50±SEM,MT1 [2]; [9],NSB
same,IC50,MT2 [3],1000 nM
same,Ki,MT2 [3],302 nM
same,Emax,MT2 [3],92 ± 3%
same,"MT1 IC50, inhibition of cAMP production",MT1 [4],NSR
same,displacement of pre-incubated [3H]melatonin at MT2 (in words),MT2 [5],completely displaced
same,EC50,MT2 [7]; [10],48.9 nM
same,Emax,MT2 [7]; MT2,96 ± 16%
same,"fold less potent than 7b (EC50, Ca2+ signal, MT2)","MT2 [7]; relative to 7b, MT2-CHO",> 160 fold
same,Ca2+ mobilization activity at MT1 (in words),MT1 [8],could not produce any activity
"COc1ccccc1COc1cc2ccn(C)c(=O)c2cc1OC [7d, 7-Methoxy-6-(2-methoxy-benzyloxy)-2-methylisoquinolin-1(2H)-one]",IC50,MT2 [1],247 nM
same,MT2 %Inhmax ±SEM,MT2 [1],59±5%
same,MT1 pIC50±SEM,MT1 [2]; [9],NSB
same,IC50,MT2 [3],2240 nM
same,Ki,MT2 [3],674 nM
same,Emax,MT2 [3],79 ± 5%
same,inhibition of cAMP levels in MT1-CHO cells (in words),MT1 [4],observable inhibition
same,MT1 %Inhmax ±SEM,MT1 [4],33±13%
same,IC50,"MT1 [4]; read-out: MT1 IC50, inhibition of cAMP production",396 nM
same,melting point,,150 to 152 °C
same,reduction of ability to trigger Ca2+ signal on moving methoxy from meta to ortho (vs 7b),MT2 [7]; MT2-CHO,2 orders of magnitude
same,EC50,MT2 [7]; [10],25.7 nM
same,Emax,MT2 [7]; MT2,85 ± 22%
"COc1ccc2c(=O)n(C)ccc2c1OCc1ccc(C)cc1 [15d, 6-Methoxy-2-methyl-5-(4-methyl-benzyloxy)-isoquinolin-1(2H)-one]",IC50,MT2 [3],9550 nM
same,Ki,MT2 [3],2890 nM
same,Emax,MT2 [3],74 ± 11%
same,"Selectivity, ratio Ki(MT1)/Ki(MT2)",MT2 [5],0.27
same,IC50,MT1 [6],3390 nM
same,Ki,MT1 [6],770 nM
same,Emax,MT1 [6],34 ± 5%
same,EC50,MT2 [7]; [10],128 nM
same,Emax,MT2 [7]; MT2,40 ± 17%
"COc1ccc2c(=O)n(C)ccc2c1OCc1ccccc1 [15a, 5-Benzyloxyl-6-methoxy-2-methylisoquinolin-1(2H)-one]",IC50,MT2 [3],1200 nM
same,Ki,MT2 [3],362 nM
same,Emax,MT2 [3],85 ± 8%
same,melting point,,125 to 127 °C
same,"Selectivity, ratio Ki(MT1)/Ki(MT2)",MT2 [5],5.72
same,IC50,MT1 [6],9120 nM
same,Ki,MT1 [6],2070 nM
same,Emax,MT1 [6],84 ± 10%
same,EC50,MT2 [7]; [10],215 nM
same,Emax,MT2 [7]; MT2,70 ± 9%
"COc1cc(COc2cc3c(=O)n(C)ccc3cc2OC)cc(OC)c1 [14c, 7-(3,5-Dimethoxy-benzyloxy)-6-methoxy-2-methylisoquinolin-1(2H)-one]",IC50,MT2 [1],326 nM
same,MT2 %Inhmax ±SEM,MT2 [1],58±3%
same,MT1 pIC50±SEM,MT1 [2]; [9],NSB
same,IC50,MT2 [3],18200 nM
same,Ki,MT2 [3],5490 nM
same,Emax,MT2 [3],94 ± 11%
same,"MT1 IC50, inhibition of cAMP production",MT1 [4],NSR
same,Ca2+ mobilization activity at MT2 (in words),"MT2 [7]; MT2-CHO cells, FLIPR",partial efficacy
same,EC50,MT2 [7]; [10],228 nM
same,Emax,MT2 [7]; MT2,71 ± 17%
same,"fold less potent than 7c (Ca2+ signal, MT2)","MT2 [7]; relative to 7c, MT2-CHO",11 fold
same,Ca2+ mobilization activity at MT1 (in words),MT1 [8],could not produce any activity
